Test results from PubChem BioAssay AID2388 (Broad Institute, 2010).
The source made the active and inactive calls.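 Rule for the calls: active = fitted EC50 no more than ten times the top tested dose; inconclusive = flat fit with 30% to 70% inhibition, or a poor fit; inactive = EC50 beyond ten times the top tested dose.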

Tested on: S. cerevisiae CDRE-lacZ reporter, CaCl2, luminescence
Assay: blockers of CaCl2-induced CDRE-lacZ signaling – S. cerevisiae, luminescence, secondary, dose response (AID 2388)

NC(=NCCCCCCN=C(N)/N=C(\N)Nc1ccc(Cl)cc1)/N=C(\N)Nc1ccc(Cl)cc1
EC50: > 18 µM (inactive)

CC1CCC(C(C)C)C(OC(=O)Cn2c(-c3ccc(Br)cc3)[n+](C)c3ccccc32)C1 (configuration not stated)
EC50: > 18 µM (inactive)
